Activity calls are given as the source filed them. The rule behind the calls is not given here.
Key:
[1] = biological target: T1, Tyrosinase (Agaricus bisporus) (UniProt O42713); assay: Ratio of IC50 for mushroom tyrosinase diphenolase activity using L-DOPA as substrate to IC50 for mushroom tyrosinase monophenolase activity using L-tyrosine as substrate
T1 sequence (whole entry): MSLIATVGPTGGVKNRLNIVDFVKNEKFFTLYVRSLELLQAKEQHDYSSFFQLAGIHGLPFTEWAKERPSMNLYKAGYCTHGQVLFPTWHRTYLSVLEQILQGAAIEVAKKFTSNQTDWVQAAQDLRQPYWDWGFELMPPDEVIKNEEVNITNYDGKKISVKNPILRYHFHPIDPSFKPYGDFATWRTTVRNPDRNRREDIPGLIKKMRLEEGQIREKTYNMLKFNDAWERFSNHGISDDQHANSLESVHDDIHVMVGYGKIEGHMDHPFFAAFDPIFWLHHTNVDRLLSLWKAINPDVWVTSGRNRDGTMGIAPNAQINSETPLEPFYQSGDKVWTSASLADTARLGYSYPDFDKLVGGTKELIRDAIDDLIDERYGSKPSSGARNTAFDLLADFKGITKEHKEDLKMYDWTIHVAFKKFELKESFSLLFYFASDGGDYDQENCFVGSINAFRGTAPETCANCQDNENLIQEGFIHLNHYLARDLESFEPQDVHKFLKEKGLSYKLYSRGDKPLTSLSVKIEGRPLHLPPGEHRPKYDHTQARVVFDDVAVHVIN

[2] = biological target: T2, Tyrosinase (Agaricus bisporus, UniProt O42713); assay: (§1) Inhibition of mushroom tyrosinase monophenolase activity using L-tyrosine as substrate measured every 60 s for 25 times
T2 sequence (O42713 whole entry): T1 sequence (whole entry)

[3] = biological target: T2, Tyrosinase; assay: (§2) Inhibition of mushroom tyrosinase diphenolase activity using L-DOPA as substrate measured every 30 s for 25 times
[4] = biological target: T2, Tyrosinase; assay: Inhibition of mushroom tyrosinase using L-DOPA as substrate preincubated for 5 mins followed by substrate addition measured for 2 mins by spectrophotometric analysis
[5] = biological target: T1, Tyrosinase (Agaricus bisporus); assay: as §1
[6] = biological target: T1, Tyrosinase (Agaricus bisporus); assay: as §2
[7] = biological target: T1, Tyrosinase (Agaricus bisporus); assay: Potency index, ratio of IC50 for benzoic acid to IC50 for test compound for inhibition of mushroom tyrosinase monophenolase activity
[8] = biological target: T1, Tyrosinase (Agaricus bisporus); assay: Non-competitive inhibition of mushroom tyrosinase monophenolase activity using L-tyrosine as substrate at 5 to 10 uM measured every 60 s for 25 times by Lineweaver-Burk plot analysis
[9] = biological target: T1, Tyrosinase (Agaricus bisporus); assay: Mixed-type inhibition of mushroom tyrosinase diphenolase activity using L-DOPA as substrate at 3 to 30 uM measured every 30 s for 25 times by Lineweaver-Burk plot analysis
[10] = biological target: T2, Tyrosinase; assay: Inhibition of mushroom tyrosinase using L-tyrosine as substrate assessed as dopachrome formation preincubated for 10 mins followed by protein addition measured after 20 mins by microplate reader analysis

Row | SMILES | Ratio IC50 [1] | IC50 [2] [µM] | IC50 [3] [µM] | inhibition [5] | also measured
1 | O=C(O)c1ccccc1 [BENZOIC ACID] | 3.66 | 224 | 822 |  | IC50 [4]: 710 µM
2 | COc1ccc(C(=O)O)cc1 [p-ANISIC ACID] |  |  |  |  | IC50 [10]: 420 µM
3 | Nc1ccc(C(=O)O)cc1 [AMINOBENZOIC ACID] |  |  |  |  | IC50 [10]: 3.8 µM

Continued, in another order:

Row | Ratio IC50 [1] | IC50 [2] [µM] | IC50 [3] [µM] | inhibition [5] | SMILES | also measured
4 |  |  |  | inactive | CCOC(=O)c1cccc(-c2ccccc2)c1 | inhibition [6]: inactive
5 | 5.21 | 6.97 | 36.3 | Dose-dependent effect | O=C(O)c1cccc(-c2ccccc2)c1 | Ratio IC50 [7]: 30; inhibition [8]: Active; inhibition [9]: Active
6 |  | > 1000 | > 1000 |  | O=C(O)c1ccccc1-c1ccccc1 | 
7 | 3.42 | 63.2 | 216 | Dose-dependent effect | O=C(O)c1ccc(-c2ccccc2)cc1 | 
